Laboratory results reported in patent US20210145830A1, “MATERIALS AND METHODS FOR TREATING CANCER” (Mayo Foundation for Medical Education and Research, priority 2018, published 2021).

Key:
CART19 and UTDs = experiment: Ex vivo T cell expansion and CART generation with TP0903; assay type: cell-based; conditions: low dose TP0903 during ex vivo manufacture
Text: FIG. 14 contains graphs showing CART19 or untransduced T cell expansion with or without varied concentrations of TP0903. Low dose TP0903 enhanced the expansion of CART19 and UTDs during ex vivo manufacture of CARTs.
The murine anti-CD19 chimeric antigen receptor (single chain variable fragment derived from clone FMC63, CD8 hinge, 4-1BB costimulatory domain and CD3 zeta signaling domain) was generated de novo and cloned into a third generation lentivirus. Normal donor T cells were […] selected using negative selection Kit (Stem Cell), and expanded in vitro using anti-CD3/CD28 Dynabeads (Invitrogen, Life Technologies, Grand Island, N.Y., USA, added on the first day of culture). T cells were transduced with lentiviral supernatant one day following stimulation at a multiplicity of infection (MOI) of 3. The anti-CD3/CD28 Dynabeads were removed on day 6 and T cells were grown in T cell media (X-vivo 15 media, human serum 5%, penicillin, streptomycin and glutamax). CART cells were then cryopreserved on day 8 for future experiments. Prior to all experiments, T cells were thawed and rested overnight at 37° C.
CART cells were generated with increasing doses of TP0903. T cells were isolated (negative selection, STEM CELL kit) and stimulated with CD3/CD28 beads on day 0. On day 1, T cells were transduced with CAR19 lentivirus at MOI of 3. […]

[1] = system: p-LCK, p38MAPK, GATA-3, T-bet in CART19 cells; experiment: Western blot of signaling molecules in stimulated CART19 cells; assay type: cell-based
Blood T cells = experiment: Correlative analysis of blood T cells in Phase I trial of TP0903 (NCT02729298); assay type: in vivo, patients with solid tumors
Text: FIG. 20. Multiparametric flow cytometric analysis of peripheral blood samples obtained before and after TP0903 treatment in patients with advanced solid tumors. A. Representative CD4^+CD25^+Foxp3^+ regulatory T cells (Treg) (upper right quadrants) at baseline (left) and after treatment (right). Data were pooled from three independent experiments with peripheral blood mononuclear cells from three donors. B. Representative flow plot of CD4^+ and CCR6^− negative cells.
The preclinical findings were validated in a correlative analyses of Phase I clinical trial of TP0903 for patients with solid tumors (NCT02729298). Blood T cells from 3 patients were isolated and analyzed before and a week after treatment with TP0903. […] These findings are further investigated in a Phase I clinical trial of TP0903 in relapsed/refractory CLL (NCT03572634).

[2] = stimulated CART cells (FIG. 18)
[3] = 3 patients, before vs a week after treatment
[4] = CD4+ CCR6− cells, after TP0903 treatment

CN1CCN(Cc2ccc(Nc3ncc(Cl)c(Nc4ccccc4S(=O)(=O)N(C)C)n3)cc2)CC1 [TP0903]
T cell expansion ex vivo and CART cell generation (CART19 and UTDs) (CART19 and UTDs): enhanced
GATA-3 [1, 2]: reduction
P38 [1, 2]: reduction
P-JNK [1, 2]: reduction
T-bet [1, 2]: reduction
phospho LCK ([1]; stimulated CART cells, dose dependent (FIG. 18)): increase
Th phenotype (Blood T cells; [3]): polarization to a Th1 phenotype
Tregs (Blood T cells; [3]): significant reduction
inhibitory receptors (Blood T cells; [3]): reduction
CXCR3+CCR4+ (double positive) fraction (Blood T cells; [4]): increase
CXCR3−CCR4+ fraction (Th2) (Blood T cells; [4]): Remarked reduction
